Reference: patent US11252953B2, “Repellent and attractant composition for dichromatic animals” (The United States of America, Represented by the Secretary …, priority 2016, dated 2022)

Key:
California voles = test: California vole concentration-response feeding experiment; format: in vivo, Microtus californicus Peale
[1] = tested on: Richardson's ground squirrels; test: Richardson's ground squirrel concentration-response feeding experiment; format: in vivo, Urocitellus richardsonii Sabine
deer mice = test: Deer mouse concentration-response feeding experiment; format: in vivo, Peromyscus maniculatus Wagner
cottontail rabbits = test: Cottontail rabbit concentration-response feeding experiment; format: in vivo, Sylvilagus audubonii Baird
wild boar = conditions: corn treated with 0.64% anthraquinone; cited from earlier work
[2] = tested on: black-tailed prairie dogs; conditions: corn seeds treated with 0.5-4.0% anthraquinone; cited from earlier work
black rats = conditions: 0.1% and 0.25% anthraquinone; cited from earlier work
possums [3] = conditions: 0.25% anthraquinone; cited from earlier work
brown rats = conditions: 0.04% and 0.08% anthraquinone; control baits 0.01-0.03% cinnamon, green carrots; cited from earlier work
possums [4] = conditions: 0.08% anthraquinone; cited from earlier work
female common voles = conditions: wheat treated with 5% anthraquinone and chloroform; cited from earlier work
male common voles = conditions: wheat treated with 15% anthraquinone and chloroform; cited from earlier work
male house mice = conditions: wheat treated with 15% anthraquinone and chloroform; cited from earlier work
Canada geese = conditions: range printed jointly for Canada geese and red-winged blackbirds; cited from earlier work
red-winged blackbirds = conditions: range printed jointly for Canada geese and red-winged blackbirds; cited from earlier work
American crows = conditions: in vivo; cited from earlier work
common grackles = conditions: in vivo; cited from earlier work
ring-necked pheasants = conditions: in vivo; cited from earlier work

With O=C1c2ccccc2C(=O)c2ccccc21 [anthraquinone, 9,10-anthraquinone] as the molecule, how does the “anthraquinone dosage for observed threshold repellency” value (California voles; at 18,300 ppm anthraquinone (84% repellency), mean vole BM=38.1 g) read?
Its value is 365.0±103.1 mg anthraquinone/kg BM.

And the threshold concentration (California voles; can effectively repel voles from treated food)?
Its threshold concentration is 1.3 % (wt/wt).

And the predicted threshold concentration (California voles; concentration needed to achieve 80% feeding repellency, non-linear regression, treated oats)?
The predicted threshold concentration was “about 13,400 ppm”.

What about the repellency (California voles; whole oats treated with 0.25-2.0% anthraquinone (target, wt/wt; actual 2,050-18,300 ppm), test consumption (day 4) relative to pre-test consumption) of the same molecule?
Its repellency is 24-84%.

What about the repellency (California voles; whole oats treated with 18,300 ppm anthraquinone) of the same molecule?
The repellency was 84%.

And the feeding repellency ([1]; whole oats treated with 0.5-2.0% anthraquinone (target; actual 5,380-18,500 ppm))?
Its feeding repellency is 40-56%.

And the repellency ([1]; whole oats treated with 18,500 ppm anthraquinone)?
Its repellency is 56%.

And the repellency (deer mice; whole oats treated with 0.25-2.0% anthraquinone (target; actual 2,820-19,900 ppm))?
Its repellency is 19-52%.

What about the repellency (deer mice; whole oats treated with 10,800 ppm anthraquinone) of the same molecule?
The repellency was 52%.

What about the “anthraquinone dosage for observed threshold repellency” value (cottontail rabbits) of the same molecule?
Its value is 149.9±28.1 mg anthraquinone/kg BM.

And the repellency (cottontail rabbits; oats treated with 4,790 ppm anthraquinone)?
Its repellency is 68%.

And the repellency (cottontail rabbits; oats treated with 10,300 ppm anthraquinone)?
The repellency was 75%.

What about the feeding repellency (cottontail rabbits; whole oats treated with 0.5-2.0% anthraquinone (target; actual 4,790-19,600 ppm)) of the same molecule?
Its feeding repellency is 68-85%.

What about the feeding repellency (cottontail rabbits; whole oats treated with 19,600 ppm anthraquinone (target 2.0%)) of the same molecule?
The feeding repellency was 85%.

And the “less treated corn consumed than untreated corn” value (wild boar)?
Its value is 86.5%.

What about the repellency [2] of the same molecule?
Its repellency is 24-37%.

What about the “response to anthraquinone-treated baits” value (black rats) of the same molecule?
Its value is “aversion”.

What about the “response to anthraquinone-treated baits” value (possums [3]) of the same molecule?
The value was “aversion”.

And the “consumption of anthraquinone-treated baits relative to control baits” value (brown rats)?
The value was “less”.

What about the “consumption of anthraquinone-treated baits relative to control baits” value (possums [4]) of the same molecule?
The value was “no different”.

What about the “less treated wheat consumed than wheat treated only with chloroform” value (female common voles) of the same molecule?
Its value is 47%.

What about the “consumption of treated wheat relative to wheat treated only with chloroform” value (male common voles) of the same molecule?
Its value is “no difference”.

And the “consumption of treated wheat relative to wheat treated only with chloroform” value (male house mice)?
The value was “greater consumption”.

What about the predicted threshold concentration (Canada geese) of the same molecule?
The predicted threshold concentration was 1,450-1,475 ppm.

And the predicted threshold concentration (red-winged blackbirds)?
The predicted threshold concentration was 1,450-1,475 ppm.

What about the predicted threshold concentration (American crows) of the same molecule?
Its predicted threshold concentration is 5,200 ppm.

And the predicted threshold concentration (common grackles)?
The predicted threshold concentration was 9,200 ppm.

And the predicted threshold concentration (ring-necked pheasants)?
The predicted threshold concentration was 10,450 ppm.
